{"source": "patent US20250340675A1", "about": "(priority 2022, published 2025)", "origin": "cited, not measured here", "key": {"mice [1]": {"test_system": "mice", "conditions": "oral administration in mice"}, "mice [2]": {"test_system": "mice", "conditions": "neurotoxic adverse effects; oral administration in mice"}, "albino mice": {"test_system": "albino mice", "conditions": "mouse, in vivo"}, "[3]": {"conditions": "in vivo"}}}
{"compound": "OCCCCO", "note": "[1,4-Butanediol]", "values": [{"measurement": "median lethal dose (LD50)", "setting": "mice [1]", "result": "1,525 mg/kg"}, {"measurement": "no observed adverse effect level (NOAEL)", "setting": "mice [2]", "result": 100, "unit": "mg/kg per day"}]}
{"compound": "O=C(O)c1cc(O)c(O)c(O)c1", "note": "[gallic acid, 3,4,5-trihydroxy benzoic acid]", "values": [{"measurement": "LD50 (acute toxicity)", "setting": "albino mice", "result": "greater than 2000 mg/kg"}]}
{"compound": "Hyaluronic acid [HA]", "values": [{"measurement": "half-life", "setting": "[3]; human", "result": "24÷48 hours"}, {"measurement": "average turnover rate", "setting": "[3]", "result": 5, "unit": "g/day"}]}
